Laboratory results: BigSolDB 2.1

O=c1cc(-c2ccccc2)oc2cc(O)cc(O)c12
solubility (mole fraction)
Conditions	293.15 K	298.15 K	303.15 K	308.15 K	313.15 K	318.15 K	323.15 K
in ethanol	0.00689	0.00749	0.0078	0.00928	0.0108	0.0121	0.0137
in water	1.26e-05	1.86e-05	2.38e-05	3.53e-05	4.61e-05	6.5e-05	0.0001
